Test results taken from US20250313604A1, “PEPTIDE PHARMACEUTICALS FOR INSULIN RESISTANCE” (Mederis Diabetes LLC, priority 2014, published 2025).
Where two headings read alike, the source gives them in different places.

How the values were obtained:
DIO mice = experiment: In vivo assay in DIO mice (OGTT, insulin, body weight, NMR body composition)
Procedure: Fifty (50) diet induced obese (DIO) C57BL/6J male mice were received from JAX labs at 6 wks of age. The mice were ear notched for identification and housed […] in positively ventilated polycarbonate cages with HEPA filtered air at a density of 5 mice per cage. The animal room was lit entirely with artificial fluorescent lighting, with a controlled 12 h light/dark cycle. The normal temperature and relative humidity ranges in the animal rooms were 22±4° C. and 50±15%, respectively. Filtered tap water, acidified to a pH of 2.8 to 3.1, and high fat diet (Research Diets D12492; 60 kcal %) was provided ad libitum.
Following a 2 week acclimation, 50 mice were randomized into groups (n=10) as below. Group 1. Vehicle treated; Group 2. Low dose EU-A994; Group 3. high dose EU-A594; Group 4. low dose EU-A1024; Group 5. high dose EU-A1024. Mice were dosed via SC on days 1 (0, 7 hrs.), 3, 6, 9, 12, 15, 18, 21, 24. Body weights and cage side observations were recorded daily. Food and water intake was recorded weekly. Mice underwent NMR measurements for determining whole body fat and lean composition on days 1 (pre-dose) and 26. On day 26, mice were fasted overnight for an oral glucose tolerance test. Next day, the first blood sample was collected via tail nick (t=0). Mice were then administered a bolus of 1.0 g/kg glucose. Blood samples were obtained via tail nick at 0, 15, 30, 60, 90 and 120 min after glucose and plasma glucose was immediately determined using a glucometer.
Sacrifice and tissue collection: Mice were sacrificed on day 28. Terminal blood was processed to serum/plasma and aliquots were sent for analysis of glucose, insulin and lipid profile. Body composition was determined by NMR.

GLP-1 R = target: T1, GLP-1 R (Homo sapiens, UniProt P43220); experiment: DiscoveRx LeadHunter cellular assay, cAMP stimulation, GLP-1 receptor; assay type: cell-based; conditions: human receptor cloned into CHO cells
T1 construct: host or cells: CHO cells
T1 sequence (P43220 24-463): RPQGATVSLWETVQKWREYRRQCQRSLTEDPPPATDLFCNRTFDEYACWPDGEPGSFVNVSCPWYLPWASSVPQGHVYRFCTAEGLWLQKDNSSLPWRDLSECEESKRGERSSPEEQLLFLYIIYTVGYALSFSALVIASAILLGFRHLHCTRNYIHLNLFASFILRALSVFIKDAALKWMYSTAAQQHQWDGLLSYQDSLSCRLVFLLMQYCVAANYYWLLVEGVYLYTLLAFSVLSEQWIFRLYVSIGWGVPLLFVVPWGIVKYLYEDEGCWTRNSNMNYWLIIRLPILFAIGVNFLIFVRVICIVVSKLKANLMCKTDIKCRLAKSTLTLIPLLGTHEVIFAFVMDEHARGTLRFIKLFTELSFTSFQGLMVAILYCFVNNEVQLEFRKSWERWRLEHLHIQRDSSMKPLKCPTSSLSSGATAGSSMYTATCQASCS

glucagon R = target: T2, glucagon R (Homo sapiens, UniProt P47871); experiment: DiscoveRx LeadHunter cellular assay, cAMP stimulation, glucagon receptor; assay type: cell-based; conditions: human receptor cloned into CHO cells
T2 construct: host or cells: CHO cells
T2 sequence (P47871 26-477): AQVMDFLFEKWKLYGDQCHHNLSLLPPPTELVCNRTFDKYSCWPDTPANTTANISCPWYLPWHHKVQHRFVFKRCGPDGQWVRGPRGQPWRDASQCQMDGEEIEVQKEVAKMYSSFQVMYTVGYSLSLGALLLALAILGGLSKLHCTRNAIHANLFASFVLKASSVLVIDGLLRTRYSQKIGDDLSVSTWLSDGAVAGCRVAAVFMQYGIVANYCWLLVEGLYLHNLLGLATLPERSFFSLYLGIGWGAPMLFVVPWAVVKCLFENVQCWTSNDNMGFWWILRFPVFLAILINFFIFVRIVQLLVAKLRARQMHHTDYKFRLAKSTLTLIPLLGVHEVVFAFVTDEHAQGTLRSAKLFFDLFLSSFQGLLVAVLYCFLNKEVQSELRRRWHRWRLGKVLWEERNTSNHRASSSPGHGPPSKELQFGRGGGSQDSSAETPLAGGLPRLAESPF

[1] = Plasma protease stability; assay type: in vitro ADME; conditions: incubation at 30 degC, t=0-8 hrs, LC-MS (FIG. 8)
Procedure: Standard and QC Sample Preparation: i. […] Make standard working solutions in 50% CH3CN with the stock solution. […] Spiked 10 μL of the working solutions into 90 μL blank plasma and vortex them, iv. […] Transfer the supernatant into an HPLC injection plate for loading on the HPLC column, vi.

EC50 (glucagon R) [nM]	SMILES	EC50 (GLP-1 R) [nM]	EC50 (glucagon R; read-out: EC50 cAMP glucagon R) [nM]	also measured
	CCCCCCCCCCCCCCO[C@@H]1O[C@H](CO[C@H]2O[C@H](C(=O)NCCCC[C@H](NC(=O)[C@@H](NC(=O)[C@H](Cc3ccccc3)NC(=O)[C@H](CCC(=O)O)NC(=O)[C@@H]3CCCCNC(=O)CC[C@H](NC(=O)[C@H](CC(=O)O)NC(=O)[C@H](CC(C)C)NC(=O)[C@H](Cc4ccc(O)cc4)NC(=O)[C@H](CCCCN)NC(=O)[C@H](CO)NC(=O)[C@H](Cc4ccc(O)cc4)NC(=O)[C@H](CC(=O)O)NC(=O)[C@H](CO)NC(=O)[C@@H](NC(=O)[C@H](Cc4ccccc4)NC(=O)[C@@H](NC(=O)CNC(=O)[C@H](CCC(N)=O)NC(=O)C(C)(C)NC(=O)[C@@H](N)Cc4c[nH]cn4)[C@@H](C)O)[C@@H](C)O)C(=O)N[C@@H](CCC(N)=O)C(=O)N[C@@H](C)C(=O)N[C@@H](C)C(=O)N3)[C@@H](C)CC)C(=O)N[C@@H](Cc3c[nH]c4ccccc34)C(=O)N[C@@H](CC(C)C)C(=O)N[C@@H](CC(C)C)C(=O)N[C@@H](CCC(N)=O)C(=O)N[C@H](C(N)=O)[C@@H](C)O)[C@H](O)[C@H](O)[C@H]2O)[C@@H](O)[C@H](O)[C@H]1O [EU-A1024, His1-Aib2-Gln3-Gly4-Thr5-Phe6-Thr7-Ser8-Asp9-Tyr10-Ser11-Lys12-Tyr13-Leu14-Asp15-Glu*16-Gln17 Ala18-Ala19-Lys*20-Glu21-Phe22-Ile23-Lys (N-omega (1-tetradecyl beta-D-melibiouronyl)) 24-Trp25-Leu26-Leu27-Gln28-Thr29-NH2]			fat mass (DIO mice; NMR (FIG. 11)): decreased fat mass; lean mass (DIO mice; NMR (FIG. 11)): minimal effects on lean mass; basal insulin secretion (DIO mice; SC dosing days 1-24): decreased basal insulin secretion; glucose-dependent insulin secretion (DIO mice; SC dosing days 1-24): potentiated glucose-dependent insulin secretion; weight gain (DIO mice; SC dosing days 1-24 (FIG. 10)): decreased weight gain; glucose excursion in the OGTT (DIO mice; SC dosing days 1-24, OGTT 1.0 g/kg glucose): decreased glucose excursion
0.253	CCCCCCCCCCCCCCO[C@H]1O[C@H](CO[C@H]2O[C@H](C(=O)NCCCC[C@@H]3NC(=O)[C@@H](NC(=O)[C@H](CC(=O)O)NC(=O)[C@H](CC(C)C)NC(=O)[C@H](Cc4ccc(O)cc4)NC(=O)[C@H](CCCCN)NC(=O)[C@H](CO)NC(=O)[C@H](Cc4ccc(O)cc4)NC(=O)[C@H](CC(=O)O)NC(=O)[C@H](CO)NC(=O)[C@@H](NC(=O)[C@H](Cc4ccccc4)NC(=O)[C@@H](NC(=O)CNC(=O)[C@H](CCC(N)=O)NC(=O)C(C)(C)NC(=O)[C@@H](N)Cc4c[nH]cn4)[C@@H](C)O)[C@@H](C)O)CCC(=O)NCCCC[C@@H](C(=O)N[C@@H](CCC(=O)O)C(=O)N[C@@H](Cc4ccccc4)C(=O)N[C@H](C(=O)N[C@@H](CCC(N)=O)C(=O)N[C@@H](Cc4c[nH]c5ccccc45)C(=O)N[C@@H](CC(C)C)C(=O)N[C@@H](CC(C)C)C(=O)N[C@@H](CCC(N)=O)C(=O)N[C@H](C(N)=O)[C@@H](C)O)[C@@H](C)CC)NC(=O)[C@H](C)NC(=O)[C@H](C)NC3=O)[C@H](O)[C@H](O)[C@H]2O)[C@@H](O)[C@H](O)[C@H]1O [EU-A1587, His1-Aib2-Gln3-Gly4-Thr5-Phe6-Thr7-Ser8-Asp9-Tyr10-Ser11-Lys12-Tyr13-Leu14-Asp15-Glu*16-Lys (N-omega (1-tetradecyl alpha-D-melibiouronyl)) 17 Ala18-Ala19-Lys*20-Glu21-Phe22-Ile23-Gln24-Trp25-Leu26-Leu27-Gln28-Thr29-NH2]	0.081		
0.655	CCCCCCCCCCCCCCCCCCO[C@H]1O[C@H](CO[C@H]2O[C@H](C(=O)NCCCC[C@@H]3NC(=O)[C@@H](NC(=O)[C@H](CC(=O)O)NC(=O)[C@H](CC(C)C)NC(=O)[C@H](Cc4ccc(O)cc4)NC(=O)[C@H](CCCCN)NC(=O)[C@H](CO)NC(=O)[C@H](Cc4ccc(O)cc4)NC(=O)[C@H](CC(=O)O)NC(=O)[C@H](CO)NC(=O)[C@@H](NC(=O)[C@H](Cc4ccccc4)NC(=O)[C@@H](NC(=O)CNC(=O)[C@H](CCC(N)=O)NC(=O)C(C)(C)NC(=O)[C@@H](N)Cc4c[nH]cn4)[C@@H](C)O)[C@@H](C)O)CCC(=O)NCCCC[C@@H](C(=O)N[C@@H](CCC(=O)O)C(=O)N[C@@H](Cc4ccccc4)C(=O)N[C@H](C(=O)N[C@@H](CCC(N)=O)C(=O)N[C@@H](Cc4c[nH]c5ccccc45)C(=O)N[C@@H](CC(C)C)C(=O)N[C@@H](CC(C)C)C(=O)N[C@@H](CCC(N)=O)C(=O)N[C@H](C(N)=O)[C@@H](C)O)[C@@H](C)CC)NC(=O)[C@H](C)NC(=O)[C@H](C)NC3=O)[C@H](O)[C@H](O)[C@H]2O)[C@@H](O)[C@H](O)[C@H]1O [EU-A1589, His1-Aib2-Gln3-Gly4-Thr5-Phe6-Thr7-Ser8-Asp9-Tyr10-Ser11-Lys12-Tyr13-Leu14-Asp15-Glu*16Lys (N-omega (1-octadecyl alpha-D-melibiouronyl)) 17 Ala18-Ala19-Lys*20-Glu21-Phe22-Ile23-Gln24-Trp25-Leu26-Leu27-Gln28-Thr29-NH2]	0.236		
	CCCCCCCCCCCCO[C@@H]1O[C@H](CO[C@H]2O[C@H](C(=O)NCCCC[C@H](NC(=O)[C@@H](NC(=O)[C@H](Cc3ccccc3)NC(=O)[C@H](CCC(=O)O)NC(=O)[C@@H]3CCCCNC(=O)CC[C@H](NC(=O)[C@H](CC(=O)O)NC(=O)[C@H](CC(C)C)NC(=O)[C@H](Cc4ccc(O)cc4)NC(=O)[C@H](CCCCN)NC(=O)[C@H](CO)NC(=O)[C@H](Cc4ccc(O)cc4)NC(=O)[C@H](CC(=O)O)NC(=O)[C@H](CO)NC(=O)[C@@H](NC(=O)[C@H](Cc4ccccc4)NC(=O)[C@@H](NC(=O)CNC(=O)[C@H](CCC(N)=O)NC(=O)C(C)(C)NC(=O)[C@@H](N)Cc4c[nH]cn4)[C@@H](C)O)[C@@H](C)O)C(=O)N[C@@H](CCC(N)=O)C(=O)N[C@@H](C)C(=O)N[C@@H](C)C(=O)N3)[C@@H](C)CC)C(=O)N[C@@H](Cc3c[nH]c4ccccc34)C(=O)N[C@@H](CC(C)C)C(=O)N[C@@H](CC(C)C)C(=O)N[C@@H](CCC(N)=O)C(=O)N[C@H](C(=O)NCCOCCOCCOCCOCCC(=O)O)[C@@H](C)O)[C@H](O)[C@H](O)[C@H]2O)[C@@H](O)[C@H](O)[C@H]1O [EU-A1639]	0.385	2.29	
	CCCCCCCCCCCCO[C@@H]1O[C@H](CO[C@H]2O[C@H](C(=O)NCCCC[C@H](NC(=O)[C@@H](NC(=O)[C@H](Cc3ccccc3)NC(=O)[C@H](CCC(=O)O)NC(=O)[C@@H]3CCCCNC(=O)CC[C@H](NC(=O)[C@H](CC(=O)O)NC(=O)[C@H](CC(C)C)NC(=O)[C@H](Cc4ccc(O)cc4)NC(=O)[C@H](CCCCN)NC(=O)[C@H](CO)NC(=O)[C@H](Cc4ccc(O)cc4)NC(=O)[C@H](CC(=O)O)NC(=O)[C@H](CO)NC(=O)[C@@H](NC(=O)[C@H](Cc4ccccc4)NC(=O)[C@@H](NC(=O)CNC(=O)[C@H](CCC(N)=O)NC(=O)C(C)(C)NC(=O)[C@@H](N)Cc4c[nH]cn4)[C@@H](C)O)[C@@H](C)O)C(=O)N[C@@H](CCC(N)=O)C(=O)N[C@@H](C)C(=O)N[C@@H](C)C(=O)N3)[C@@H](C)CC)C(=O)N[C@@H](Cc3c[nH]c4ccccc34)C(=O)N[C@@H](CC(C)C)C(=O)N[C@@H](CC(C)C)C(=O)N[C@@H](CCC(N)=O)C(=O)N[C@H](C(=O)NCCOCCOCCOCCOCCOCCOCCOCCOCCC(=O)O)[C@@H](C)O)[C@H](O)[C@H](O)[C@H]2O)[C@@H](O)[C@H](O)[C@H]1O [EU-A1651]	0.033	0.149	
	CC[C@H](C)[C@H](NC(=O)[C@H](Cc1ccccc1)NC(=O)[C@H](CCC(=O)O)NC(=O)[C@H](CCCCN)NC(=O)[C@H](C)NC(=O)[C@H](C)NC(=O)[C@H](CCC(N)=O)NC(=O)CNC(=O)[C@H](CCC(=O)O)NC(=O)[C@H](CC(C)C)NC(=O)[C@H](Cc1ccc(O)cc1)NC(=O)[C@H](CO)NC(=O)[C@H](CO)NC(=O)[C@@H](NC(=O)[C@H](CC(=O)O)NC(=O)[C@H](CO)NC(=O)[C@@H](NC(=O)[C@H](Cc1ccccc1)NC(=O)[C@@H](NC(=O)CNC(=O)[C@H](CCC(=O)O)NC(=O)[C@H](C)NC(=O)[C@@H](N)Cc1c[nH]cn1)[C@@H](C)O)[C@@H](C)O)C(C)C)C(=O)N[C@@H](C)C(=O)N[C@@H](Cc1c[nH]c2ccccc12)C(=O)N[C@@H](CC(C)C)C(=O)N[C@H](C(=O)N[C@@H](CCCCN)C(=O)NCC(=O)N[C@@H](CCCNC(=N)N)C(N)=O)C(C)C [GIP-1 (7-36), reference compound]			amount of intact compound in the human plasma versus time [1]: rapid decrease
